Read-outs that look alike come from different tables or passages of the source.
Experiments:
Assay type in all cases: physicochemical
[1] = FFA particle nucleation by DLS: interaction of bi- and trivalent cations with lauric acid; conditions: for FFA salt particle formation and growth (DLS): metal ion 0-30 μM, 70 hours, 5° C.
Procedure: DLS experiments were performed on DynaPro(R) plate reader (Wyatt, Santa Barbara, Calif.). The DLS plate reader is flushed with nitrogen 5 hours before commencing the measurements and cooled down to 5° C. during the entire duration of the measurements. 200 μL of sample solutions comprising of 20 μg lauric acid (LA) in 20 mM L-Histidine buffer at pH 6.0 supplemented with 6% v/v DMSO, and varying amounts of metal ions (Al^3+, Fe^3, Zn^2+, Mg^2+, Ca^2+, Ni^2+) were mixed in the cuvettes of black glass bottom 96 well plates (Greiner Bio-One GmbH, Frickenhausen, Germany). FFA nucleation and particle growth were measured over 40-70 hours using a 633 nm laser and a backscatter detection system at 158°. The hydrodynamic particle radius (rH) was determined by fitting a cumulant fit to the obtained auto-correlation function. […] The laser power was adjusted before each measurement sequence and kept constant during the entire measurement. The attenuation level was set to zero for all measurements in order to collect the maximum amount of scattered light. Aluminium (Al), Iron (Fe), Zink (Zn), Magnesium (Mg), Calcium (Ca) and Nickel (Ni) stock solutions were prepared at 4 mM in Milli-Q water pH 2.5 from their respective salts and stored at 2-8° C. until used. Diluted sample solutions (100×) were freshly prepared in Milli-Q water pH 2.5. The DLS assay buffer was added to the salt sample solutions to attain metal ion target concentrations of 0, 1, 3, 10 and 30 μM. Particles size (rH) and intensity were measured over a period of 70 h as described above.

[2] = FFA particle nucleation by DLS: impact of aluminum concentration on particle kinetics; conditions: 20 ppb Al; 5° C.; not captured in the 40 hours experiment
Procedure: DLS experiments were performed on DynaPro(R) plate reader (Wyatt, Santa Barbara, Calif.). The DLS plate reader is flushed with nitrogen 5 hours before commencing the measurements and cooled down to 5° C. during the entire duration of the measurements. 200 μL of sample solutions comprising of 20 μg lauric acid (LA) in 20 mM L-Histidine buffer at pH 6.0 supplemented with 6% v/v DMSO, and varying amounts of metal ions (Al^3+, Fe^3, Zn^2+, Mg^2+, Ca^2+, Ni^2+) were mixed in the cuvettes of black glass bottom 96 well plates (Greiner Bio-One GmbH, Frickenhausen, Germany). FFA nucleation and particle growth were measured over 40-70 hours using a 633 nm laser and a backscatter detection system at 158°. The hydrodynamic particle radius (rH) was determined by fitting a cumulant fit to the obtained auto-correlation function. […]
Al sample solutions (100×) in 20 mM Histidine buffer pH 6.0 were prepared from a sterile 50 ppm Al stock solution (20 mM Glycine pH 2.5) and were spiked into the DLS assay buffer at target concentrations of 0, 20, 40, 60 and 100 ppb Al. Particle nucleation and growth was measured over a period of 40 hours as described above.
Quantitative analysis was performed by analyzing the intensity of the scattered laser light of the FFA particles over time by fitting a sigmoidal Boltzmann function to the growth curves. […]

[3] = Spiking study with free fatty acids and aluminum, visible particles by Seidenader (Table 4A); conditions: Seidenader results
Procedure: A 100 ppm aluminum stock solution was prepared from aluminum chloride hexahydrate in 20 mM histidine acetate pH 5.5. The actual concentration of aluminum was determined by inductively-coupled plasma mass spectrometry (ICP-MS). This stock solution was then diluted to 10 ppm Al^3+ and sterile-filtered through a 0.22 μm porosity filter cartridge (Sterivex-GV, Millipore).
All vials were sealed with 20 mm teflonized injection stoppers (D777-1, Daikyo) and aluminum crimp caps and homogenized on a MaxQ™ 4000 Benchtop Orbital Shaker (Thermo Scientific™, Waltham, Mass., USA) for 1 hour at 25° C.
LAMA-10 only comprised polysorbate 20 and was used for the preparation of negative controls. All samples were prepared in triplicates.
Samples were stored at 5° C. and the formation of visible particles was assessed for up to 28 days using a black/white and a Seidenader V 90-T instrument (Seidenader Maschinenbau GmbH, Markt Schwaben, DE) as described above.
Samples were analyzed for the presence of visible particles after storage at 2-8° C. for 0, 1 day, 7 days and 28 days using the (A) Seidenader and (B) E/P box.

[4] = Spiking study with different PS20 and PS80 grades, aluminum and DTPA, visible particles by Seidenader (Table 11); conditions: DTPA, 250 ppb aluminum, independent of PS grade or enzyme
Procedure: (§1) Super refined (SR) PS20 and PS80, high purity (HP) PS20 and PS80, as well as pure oleic acid (POA) PS80 were enzymatically hydrolyzed by 10% using immobilized enzymes (Graf et al. 2020) (mucor miehei lipase (MML), Candida antarctica lipase (CAL) and Candida antarctica lipase B (CALB)). […] Diluted aluminum solutions comprising in 20 mM histidine acetate pH 5.5 were prepared as described above and filled into 20 mL type I borosilicate glass vials (Schott, Mainz, DE). Samples containing either 0 or 250 ppb of aluminum (Al^3) were spiked with different PS stock solutions (HP PS20, SR PS20, HP PS80, SR PS80, POA PS80; degradation level of 0 or 10%). In addition, samples containing 250 ppb aluminum were supplemented with 0.05 mM diethylenetriaminepentaacetic acid (DTPA) prior spiking with partially degraded PS. Vials were sealed with 20 mm teflonized injection stoppers (D777-1, Daikyo) and aluminum crimp caps and homogenized on a MaxQTM 4000 Benchtop Orbital Shaker (Thermo ScientificTM, Waltham, Mass., USA) for 1 hour at 25° C. […] Different grades of non-degraded polysorbate 20 and 80 served as negative controls. All samples were prepared in triplicates. Samples were stored at 5° C. and particle formation was assessed for up to 22 days by visual inspection using a black/white panel according Ph. Eur. 2.9.20. and enhanced visual inspection ([…] instrument) as described above.

[5] = FFA metal nucleation by DLS in presence of DTPA, Fe nucleation study
Procedure: (§2) DLS experiments were performed on DynaPro(R) plate reader (Wyatt, Santa Barbara, Calif.). The DLS plate reader is flushed with nitrogen 5 hours before commencing the measurements and cooled down to 5° C. during the entire duration of the measurements. 200 μL of sample solutions comprising of 20 μg lauric acid (LA) in 20 mM L-Histidine buffer at pH 6.0 supplemented with 6% v/v DMSO, and varying amounts of metal ions (Al^3+, Fe^3, Zn^2+, Mg^2+, Ca^2+, Ni^2+) were mixed in the cuvettes of black glass bottom 96 well plates (Greiner Bio-One GmbH, Frickenhausen, Germany). FFA nucleation and particle growth were measured over 40-70 hours using a 633 nm laser and a backscatter detection system at 158°. The hydrodynamic particle radius (rH) was determined by fitting a cumulant fit to the obtained auto-correlation function. The lower and upper boundary for the cumulant fit was set to lag times τ of 10 μs and 1000 μs respectively. The laser power was adjusted before each measurement sequence and kept constant during the entire measurement. The attenuation level was set to zero for all measurements in order to collect the maximum amount of scattered light.
For the Al nucleation study, a metal ion target concentration of 2 μM was used. […] For the Fe nucleation study, the target concentration of Fe was 4 μM. The final concentration of DTPA was either 0, 0.04, 0.4, 2.0, 4.0 or 40 μM resulting in molar ratios (DTPA:Fe) of 0, 0.01, 0.1, 0.5, 1.0 and 10, respectively. DLS measurements were conducted over 50 hours at 5° C. as described above.

[6] = Spiking study with different PS20 and PS80 grades, aluminum and DTPA, visible particles by E/P (Table 10); conditions: 50 μM DTPA, 250 ppb aluminum, all grades of PS
Procedure: as §1

[7] = Spiking study with partially degraded polysorbate 20 and aluminum, visible particles by E/P box; conditions: 0.05 mM DTPA or 0.005% (w/v) EDTA; 250 ppb aluminum; partially degraded polysorbate below the solubility limit
Procedure: Diluted aluminum solutions comprising in 20 mM histidine acetate pH 5.5 were prepared as described above and filled into 20 mL type I borosilicate glass vials (Schott, Mainz, DE). […] Vials were sealed with 20 mm teflonized injection stoppers (D777-1, Daikyo) and aluminum crimp caps and homogenized on a MaxQ™ 4000 Benchtop Orbital Shaker (Thermo Scientific™, Waltham, Mass., USA) for 1 hour at 25° C.
PS20-Std only comprised non-degraded polysorbate 20 and was used for the preparation of negative controls. All samples were prepared in triplicates.
Samples were stored at 5° C. and particle formation was assessed for up to 28 days by visual inspection using a black/white panel according Ph.
Samples were visually inspected (E/P box) for the presence of visible particles after incubation for 0, 1 day, 7 days and 28 days at 2-8° C.

[8] = FFA metal nucleation by DLS in presence of DTPA and real glass leachables; conditions: lauric acid and real glass leachables
Procedure: as §2
Representative glass leachables solutions were prepared according to a procedure disclosed in Allmendinger et al. (Allmendinger et al. 2021). […]

[9] = Solubility of free fatty acids in histidine acetate buffer pH 5.5, visible particles by Seidenader; conditions: kinetic from dmso stock
Procedure: In brief, lauric acid (“LA”. Sigma-Aldrich/Merck, Darmstadt, DE) and myristic acid (“MA”, Sigma-Aldrich/Merck, Darmstadt, DE) were suspended in PS20 HP (Croda, Edison, N.J., USA) and stirred (150 rpm) for 30 min at 60° C. until both FFAs were fully dissolved. Solutions were diluted 1:5 with pre-warmed (60° C.) water for injection (WFI) and immediately filtered through 0.22 μm PVDF Steriflip filters (Merck Millipore, Darmstadt, DE). The concentration of LA and MA in FFA stock solutions was verified by LC-MS as described by Honemann et al. (Honemann et al. 2019) LA/MA/PS20 stock solutions were spiked into 20 mM histidine acetate buffer pH 5.5 (1:500 dilution, n=3) and homogenized on a MaxQ™ 4000 Benchtop Orbital Shaker (Thermo Scientific™, Waltham, Mass., USA) for 1 hour at 25° C. Samples were stored at 5° C. and analyzed for visible particles after 0, 1, 7 and 28 days using a black/white panel according Ph. Eur. 2.9.20 (European Directorate for the Quality of Medicines) and a Seidenader V 90-T instrument (Seidenader Maschinenbau GmbH, Markt Schwaben, DE). […]
Free fatty acid (FFA) stock solutions of lauric acid (LA) and myristic acid (MA) were spiked into 20 mM histidine acetate buffer pH 5.5 (n=3). Samples were analyzed for the presence of visible particles after incubation at 2-8° C. for 0, 1 day, 7 days and 28 days using the (A) Seidenader and (B) E/P box.

## [Al+3] [Al]
[1]
  FFA salt particle formation and growth (DLS): particle formation and growth
[2]
  Inflection point of the sigmoidal curve fit of scattering intensity: around 65 hours
[3]
  Trace amount of aluminum sufficient to complex free fatty acids and form visible particles: 10 ppb

## [Ca+2] [Ca]
[1]
  FFA salt particle formation and growth (DLS): did not lead to FFA salt particle formation or growth

## O=C(O)CN(CCN(CC(=O)O)CC(=O)O)CCN(CC(=O)O)CC(=O)O [DTPA, Diethylenetriaminepentaacetic acid]
[4]
  Particle formation in presence of the chelator: significantly mitigated
[5]; DTPA to Fe ratio of 0.5
  Particle radius: only slightly changed
  Scattering intensity: significantly decreased
[5]; equimolar amounts of DTPA, lauric acid and 4 μM Fe
  Particle formation and growth (DLS): complete suppression
[6]
  Visible particles in presence of the chelator: no particles were observed
[7]
  Formation of visible FFA particles on addition of chelator: successfully prevented
[8]
  Molar ratio of chelator to Al efficient in mitigating particle formation: at least 1.5

## [Fe+3] [Fe]
[1]; instant particle formation, no further increase over time
  Hydrodynamic particle radius rH: 50-60 nm
[1]
  FFA salt particle formation and growth (DLS): particle formation and growth

## [Mg+2] [Mg]
[1]
  FFA salt particle formation and growth (DLS): did not lead to FFA salt particle formation or growth

## [Ni+2] [Ni]
[1]
  FFA salt particle formation and growth (DLS): did not lead to FFA salt particle formation or growth

## [Zn+2] [Zn]
[1]
  FFA salt particle formation and growth (DLS): did not lead to FFA salt particle formation or growth

## CCCCCCCCCCCC(=O)O [lauric acid]
[9]; 20 mM histidine acetate buffer with 0.04% PS20, 5 °C, aqueous with cosolvent or surfactant or cyclodextrin, lauric and myristic acid together, histidine acetate buffer pH 5.5, 0.04% PS20, 2-8° C., 28 days, Seidenader and E/P box, read-out: Solubility limit (concentration at which free fatty acids exceeded the solubility limit)
  solubility at 28 days: < 12.5 µg/mL

## CCCCCCCCCCCCCC(=O)O [myristic acid]
[9]; 5 °C, pH 5.5, aqueous with cosolvent or surfactant or cyclodextrin
  solubility at 28 days: < 5 µg/mL

From patent US20230233684A1, “USE OF CHELATORS FOR THE PREVENTION OF VISIBLE PARTICLE FORMATION IN PARENTERAL PROTEIN SOLUTIONS” (Hoffmann-La Roche Inc., priority 2020, published 2023)
